From US3932383A, “9-Dihydroniddamycin A compounds and related 3-(O)-esters and the process for their preparation” (Abbott Laboratories, priority 1974, dated 1976)
Converted amounts (≈) assume the structure as drawn.

Columns and labels:
Format in all cases: cell-based
Escherichia coli Juhl = experiment: agar two-fold dilution test; conditions: 37° C., read-out: Minimum Inhibitory Concentration
Experimental: (§1) Two niddamycin derivatives were tested for their activity against 21 organisms.
(§2) An agar dilution two-fold dilution test was used for the first 14 bacterial organisms, while the remaining seven were tested by means of a two-fold tube dilution method. The incubation for all the tests was carried out at 37° C.
(§3) The niddamycin base compound (M-188 ) was used as the control compound.

[1] = tested on: Klebsiella pneumoniae 10031; experiment: agar two-fold dilution test; conditions: 37° C., read-out: Minimum Inhibitory Concentration
Experimental: as §1, §2, §3

[2] = tested on: Pasteurella multocida 10544; experiment: agar two-fold dilution test; conditions: 37° C., read-out: Minimum Inhibitory Concentration
Experimental: as §1, §2, §3

[3] = tested on: Proteus mirabilis Finland No. 9; experiment: agar two-fold dilution test; conditions: 37° C., read-out: Minimum Inhibitory Concentration
Experimental: as §1, §2, §3

[4] = tested on: Proteus vulgaris Abbott JJ; experiment: agar two-fold dilution test; conditions: 37° C., read-out: Minimum Inhibitory Concentration
Experimental: as §1, §2, §3

[5] = tested on: Pseudomonas aeruginosa BMH No. 10; experiment: agar two-fold dilution test; conditions: BMHNO.10, 37° C., read-out: Minimum Inhibitory Concentration
Experimental: as §1, §2, §3

[6] = tested on: Salmonella typhimurium Ed No. 9; experiment: agar two-fold dilution test; conditions: Salmonella enterica, 37° C., read-out: Minimum Inhibitory Concentration
Experimental: as §1, §2, §3

Shigella sonnei 9290 = experiment: agar two-fold dilution test; conditions: 37° C., read-out: Minimum Inhibitory Concentration
Experimental: as §1, §2, §3

[7] = tested on: Staphylococcus aureus 9144; experiment: agar two-fold dilution test; conditions: 37° C., read-out: Minimum Inhibitory Concentration
Experimental: as §1, §2, §3

[8] = tested on: Staphylococcus aureus Smith ER; experiment: agar two-fold dilution test; conditions: read-out: Minimum Inhibitory Concentration
Experimental: as §1, §2, §3

[9] = tested on: Staphylococcus aureus Smith; experiment: agar two-fold dilution test; conditions: 37° C., read-out: Minimum Inhibitory Concentration
Experimental: as §1, §2, §3

[10] = tested on: Staphylococcus aureus Wise 155; experiment: agar two-fold dilution test; conditions: WISE155, 37° C., read-out: Minimum Inhibitory Concentration
Experimental: as §1, §2, §3

[11] = tested on: Streptococcus faecalis 10541; experiment: agar two-fold dilution test; conditions: Enterococcus faecalis, 37° C., read-out: Minimum Inhibitory Concentration
Experimental: as §1, §2, §3

[12] = tested on: Streptococcus pyogenes Roper; experiment: agar two-fold dilution test; conditions: 37° C., read-out: Minimum Inhibitory Concentration
Experimental: as §1, §2, §3

Crithidia fasciculata = experiment: two-fold tube dilution method; conditions: 37° C., read-out: Minimum Inhibitory Concentration
Experimental: as §1, §2, §3

[13] = tested on: Haemophilus influenzae 9334; experiment: two-fold tube dilution method; conditions: 37° C., read-out: Minimum Inhibitory Concentration
Experimental: as §1, §2, §3

[14] = tested on: Mycoplasma gallispeticum S6; experiment: two-fold tube dilution method; conditions: 37° C., read-out: Minimum Inhibitory Concentration
Experimental: as §1, §2, §3

[15] = tested on: Mycoplasma granularum 19168; experiment: two-fold tube dilution method; conditions: Acholeplasma granularum, 37° C., read-out: Minimum Inhibitory Concentration
Experimental: as §1, §2, §3

[16] = tested on: Mycoplasma hyorhinis 17981; experiment: two-fold tube dilution method; conditions: 37° C., read-out: Minimum Inhibitory Concentration
Experimental: as §1, §2, §3

Mycoplasma pneumoniae FH [17] = experiment: two-fold tube dilution method; conditions: 37° C. (Table 2), read-out: Minimum Inhibitory Concentration
Experimental: as §1, §2, §3

[18] = tested on: Trichomonas vaginalis C1M1; experiment: two-fold tube dilution method; conditions: 37° C., read-out: Minimum Inhibitory Concentration
Experimental: as §1, §2, §3

A. versicolor = experiment: standard FG (fungi) screening program; conditions: Aspergillus versicolor, read-out: Minimum Inhibitory Concentration
Experimental: (§4) The samples were also tested on the standard FG (fungi) screening program.
as §3

Alternaria label isolate = experiment: standard FG (fungi) screening program; conditions: read-out: Minimum Inhibitory Concentration
Experimental: as §4, §3

C. globosum = experiment: standard FG (fungi) screening program; conditions: Chaetomium globosum, read-out: Minimum Inhibitory Concentration
Experimental: as §4, §3

F. oxysporum = experiment: standard FG (fungi) screening program; conditions: Fusarium oxysporum, read-out: Minimum Inhibitory Concentration
Experimental: as §4, §3

M. verrucaria = experiment: standard FG (fungi) screening program; conditions: read-out: Minimum Inhibitory Concentration
Experimental: as §4, §3

P. citrinum = experiment: standard FG (fungi) screening program; conditions: Penicillium citrinum, read-out: Minimum Inhibitory Concentration
Experimental: as §4, §3

Rhizopus nigricans = experiment: standard FG (fungi) screening program; conditions: Rhizopus stolonifer, read-out: Minimum Inhibitory Concentration
Experimental: as §4, §3

[19] = tested on: Streptococcus pyogenes C203; experiment: two-fold tube dilution test; conditions: brain-heart infusion broth, 24 hours at 37° C., read-out: Minimum Inhibitory Concentration
Experimental: (§5) Three niddamycin and two dihydroniddamycin compounds were tested for their activity against Streptococcus pyogenes C203, Diplococcus pneumoniae 6301 and Mycoplasma pneumoniae FH.
(§6) A standard two-fold tube dilution test was used. The medium and inoculum were varied with each culture.
In the test for activity against Streptococcus pyrogenes C203, 5 ml. portions of brain-heart infusion broth were used with 0.1 ml. of a 1:100 dilution culture. The test was incubated for 24 hours at 37° C.

[20] = tested on: Diplococcus pneumoniae 6301; experiment: two-fold tube dilution test; conditions: Streptococcus pneumoniae, brain-heart infusion broth and 20% horse serum, 24 hours at 37° C., read-out: Minimum Inhibitory Concentration
Experimental: as §5, §6
In the test for activity against Diplococcus pneumoniae 6301, 5 ml. portions of brain-heart infusion broth and 20% horse serum were used with 0.1 ml. of 1:100 dilution culture. The test was incubated for 24 hours at 37° C.

Mycoplasma pneumoniae FH [21] = experiment: two-fold tube dilution test; conditions: 144 h, PPLO broth, 6 days at 37° C., read-out: Minimum Inhibitory Concentration
Experimental: as §5, §6
In the test for activity against Mycoplasma pneumoniae FH, 4.5 ml. portions of PPLO broth were used with 0.5 ml. of a 1:100 dilution culture. the test was incubated for 6 days at 37° C.

In the case of `COC1C(O)CC(=O)OC(C)CC=CC=CC(O)C(C)CC(CC=O)C1OC1OC(C)C(OC2CC(C)(O)C(OC(=O)CC(C)C)C(C)O2)C(N(C)C)C1O` (single isomer, unassigned) [Compound 5, 9-Dihydroniddamycin A], the MIC (Escherichia coli Juhl) is reported as > 100 µg/mL, the MIC [1] is reported as 12.5 µg/mL (≈ 15.9 µM) and the MIC [2] is reported as 12.5 µg/mL (≈ 15.9 µM). The MIC [3] was > 100 µg/mL, the MIC [4] was > 100 µg/mL and the MIC [5] was > 100 µg/mL. The MIC [6] was > 100 µg/mL, the MIC (Shigella sonnei 9290) was > 100 µg/mL and the MIC [7] was 0.78 µg/mL (≈ 0.992 µM). For the same molecule, the MIC [8] was > 100 µg/mL, the MIC [9] was 0.78 µg/mL (≈ 0.992 µM) and the MIC [10] was 1.56 µg/mL (≈ 1.98 µM). The MIC [11] was 0.78 µg/mL (≈ 0.992 µM), the MIC [12] was > 100 µg/mL and the MIC (Crithidia fasciculata) was > 100 µg/mL. The MIC [13] was 6.2 µg/mL (≈ 7.89 µM), the MIC [14] was 0.25 µg/mL (≈ 0.318 µM) and the MIC [15] was 2.5 µg/mL (≈ 3.18 µM). The MIC [16] was 0.25 µg/mL (≈ 0.318 µM), the MIC (Mycoplasma pneumoniae FH [17]) was 50 µg/mL (≈ 63.6 µM) and the MIC [18] was > 100 µg/mL. For the same molecule, the MIC (A. versicolor) was > 100 µg/mL, the MIC (Alternaria label isolate) was > 100 µg/mL and the MIC (C. globosum) was > 100 µg/mL. The MIC (F. oxysporum) was > 100 µg/mL, the MIC (M. verrucaria) was > 100 µg/mL and the MIC (P. citrinum) was > 100 µg/mL. For the same molecule, the MIC (Rhizopus nigricans) was > 100 µg/mL.

`COC(CC1CC(C)C(=O)C=CC=CCC(C)OC(=O)CC(O)C(OC)C1OC1OC(C)C(OC2CC(C)(O)C(OC(=O)CC(C)C)C(C)O2)C(N(C)C)C1O)OC` (centres unmarked) [Compound 2, Niddamycin dimethyl acetal] was tested, and the MIC [19] was 0.78 µg/mL (≈ 0.94 µM), the MIC [20] was ≤ 1.56 µg/mL and the MIC (Mycoplasma pneumoniae FH [21]) was 25 µg/mL (≈ 30.1 µM).

`COC(CC1CC(C)C(=O)C=CC=CCC(C)OC(=O)CC(OC(C)=O)C(OC)C1OC1OC(C)C(OC2CC(C)(O)C(OC(=O)CC(C)C)C(C)O2)C(N(C)C)C1OC(C)=O)OC` (centres unmarked) [Compound 4B, 2',3-Di-(O)-acetylniddamycin dimethyl acetal] was tested, and the MIC [19] was > 100 µg/mL, the MIC [20] was > 100 µg/mL and the MIC (Mycoplasma pneumoniae FH [21]) was > 100 µg/mL.

In the case of `COC1C(O)CC(=O)OC(C)CC=CC=CC(=O)C(C)CC(CC=O)C1OC1OC(C)C(OC2CC(C)(O)C(OC(=O)CC(C)C)C(C)O2)C(N(C)C)C1O` (centres unmarked) [Niddamycin Base, niddamycin], the MIC (Escherichia coli Juhl) is reported as > 100 µg/mL, the MIC [1] is reported as 12.5 µg/mL (≈ 15.9 µM) and the MIC [2] is reported as 12.5 µg/mL (≈ 15.9 µM). The MIC [3] was > 100 µg/mL, the MIC [4] was > 100 µg/mL and the MIC [5] was > 100 µg/mL. For the same molecule, the MIC [6] was > 100 µg/mL, the MIC (Shigella sonnei 9290) was > 100 µg/mL and the MIC [7] was 0.39 µg/mL (≈ 0.497 µM). The MIC [8] was > 100 µg/mL, the MIC [9] was 0.39 µg/mL (≈ 0.497 µM) and the MIC [10] was 0.78 µg/mL (≈ 0.995 µM). For the same molecule, the MIC [11] was 0.78 µg/mL (≈ 0.995 µM), the MIC [12] was > 100 µg/mL and the MIC (Crithidia fasciculata) was > 100 µg/mL. For the same molecule, the MIC [13] was 3.1 µg/mL (≈ 3.95 µM), the MIC [14] was 0.1 µg/mL (≈ 0.128 µM) and the MIC [15] was 1 µg/mL (≈ 1.28 µM). For the same molecule, the MIC [16] was 0.25 µg/mL (≈ 0.319 µM), the MIC (Mycoplasma pneumoniae FH [17]) was 10 µg/mL (≈ 12.8 µM) and the MIC [18] was > 100 µg/mL. The MIC (A. versicolor) was > 100 µg/mL, the MIC (Alternaria label isolate) was > 100 µg/mL and the MIC (C. globosum) was > 100 µg/mL. For the same molecule, the MIC (F. oxysporum) was > 100 µg/mL, the MIC (M. verrucaria) was > 100 µg/mL and the MIC (P. citrinum) was > 100 µg/mL. The MIC (Rhizopus nigricans) was > 100 µg/mL.
